Experiment: X-ray diffraction of hydrated amphiphile and phosphatidylcholine mixtures at constant osmotic pressure
Assay type: physicochemical
Settings: 20° C., constant osmotic pressure 1.6×10^5 dyne/cm^2; 20 mole percent Oleoyl-PEG(1500)-Oleoyl; pure SOPC = 0 mole % additive
Text: Unoriented multilamellar fully hydrated lipid preparations in sealed glass capillaries held in a point collimated X-ray beam produce recordable “powder” diffraction patterns. The overall lamellar repeat period calculated from X-ray diffraction pattern comprises discernible double lipid chain thickness and interbilayer separation arising from the aqueous fluid in contact with the polar head groups. For osmotically stressed multilamellar preparations, the interbilayer separation decreases as a function of applied pressure and reaches a minimum approaching the closest contact for the head groups of the opposing phospholipids. […]
In the multilamellar vesicles prepared from phospholipid compositions doped with the novel amphiphiles, the bulky head group residues are expected to reside in and enlarge (widen) the interbilayer gap. Therefore, in comparative studies on preparations with and without a selected amphiphile, the interbilayer repeat distances are measured. In addition, the effect of osmotic pressures, produced by 4% PVP (up to ca. 1.6×10^5 dyne/cm^2), is evaluated. […]
X-ray diffraction was used to characterize the liposomes (MLVs) prepared in EXAMPLE 1 by hydration of selected novel amphiphile and PC mixtures. […] Osmotic pressures for PVP solutions are recorded in the literature (Parsegian et al., 1986). […]

- lamellar repeat period d100 in SOPC as a function of mole percent additive: 58 Å
SMILES: CCCCCCCC/C=C\CCCCCCCC(=O)O[C@H](COC(=O)CCCCCCCCCCCCCCCCC)COP(=O)([O-])OCC[N+](C)(C)C [SOPC, 1-stearoyl-2-oleoyl-sn-glycero-3-phosphocholine]

Reference: US7368129B1, “Amphiphilic materials and liposome formulations thereof” (Nutrimed Biotech, priority 1996, dated 2008)
